This note sets out measurements from patent publication US20250170141A1, “MRGPRX2 MODULATORS AND RELATED METHODS OF TREATMENT” (Escient Pharmaceuticals, Inc., priority 2023, published 2025).

The target in the assay is T1, human MRGPRX2 (Homo sapiens, UniProt Q96LB1).
T1 construct: expressed in transfected cells; host or cells: CHO cells, stably transfected (G418 and Hygromycin B selection)
T1 sequence (Q96LB1 1-330): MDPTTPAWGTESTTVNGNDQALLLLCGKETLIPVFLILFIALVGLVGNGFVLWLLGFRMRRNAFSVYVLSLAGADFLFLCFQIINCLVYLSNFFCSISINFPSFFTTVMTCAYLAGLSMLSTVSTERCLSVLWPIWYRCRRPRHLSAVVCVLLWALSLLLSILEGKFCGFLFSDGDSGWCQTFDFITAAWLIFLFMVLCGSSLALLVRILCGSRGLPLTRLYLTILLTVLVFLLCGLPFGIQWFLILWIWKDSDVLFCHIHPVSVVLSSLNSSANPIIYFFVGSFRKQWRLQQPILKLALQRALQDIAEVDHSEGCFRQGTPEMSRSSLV
Description: MRGPRX2 activity: IP-One Gq HTRF assay in CHO cells, antagonism versus 0.3 uM Cortistatin-14. It counts as cell-based. As to conditions: versus 0.3 uM Cortistatin-14 agonist, CHO cells expressing human MRGPRX2, read-out: MRGPRX2 Antagonist Activity. The method, boiled down: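 CHO cells stably expressing human MRGPRX2 were treated with a 10-point compound curve (30 uM top, 1:3) plus 0.3 μM Cortistatin-14 in LiCl-containing Tris buffer, pH 8. Incubation was 1 h at 37 °C then 1 h at room temperature; IP-1 was detected by HTRF and IC50 came from the HTRF ratio.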
For orientation: TR-FRET usually uses a lanthanide donor and a delayed reading to cut background.

Each structure is given as a SMILES string. Some results are limits rather than exact numbers.

For `COc1cccc(C(C)c2c(F)ccc3c2NC(NCc2cccc(F)c2)=NS3(=O)=O)n1` (centres unmarked) [Compound 22-6, 6-fluoro-3-((3-fluorobenzyl)amino)-5-(1-(6-methoxypyridin-2-yl)ethyl)-4H-benzo[e][1,2,4]thiadiazine 1,1-dioxide], the IC50 was less than 0.1 µM.
On to `COc1ccc(C(C)c2c(F)ccc3c2NC(NCc2cccc(F)c2)=NS3(=O)=O)c(F)c1` (centres unmarked) [Compound 22-7, 6-fluoro-5-(1-(2-fluoro-4-methoxyphenyl)ethyl)-3-((3-fluorobenzyl)amino)-4H-benzo[e][1,2,4]thiadiazine 1,1-dioxide], for which the IC50 was less than 0.1 µM.
As to `CC(c1ccc2ccccc2c1)c1c(F)ccc2c1NC(NCc1cccc(F)c1)=NS2(=O)=O` (centres unmarked) [Compound 22-8, 6-fluoro-3-((3-fluorobenzyl)amino)-5-(1-(naphthalen-2-yl)ethyl)-4H-benzo[e][1,2,4]thiadiazine 1,1-dioxide], the IC50 is 0.1 to 0.5 µM.
As for `CC(c1ccc2c(c1)CCCC2)c1c(F)ccc2c1NC(NCc1cccc(F)c1)=NS2(=O)=O` (centres unmarked) [Compound 22-9, 6-fluoro-3-((3-fluorobenzyl)amino)-5-(1-(5,6,7,8-tetrahydronaphthalen-2-yl)ethyl)-4H-benzo[e][1,2,4]thiadiazine 1,1-dioxide], the IC50 fell in the range of 0.1 to 0.5 µM.
For `Cc1ccc(C(C)c2c(F)ccc3c2NC(NCc2cccc(F)c2)=NS3(=O)=O)o1` (centres unmarked) [Compound 22-10, 6-fluoro-3-((3-fluorobenzyl)amino)-5-(1-(5-methylfuran-2-yl)ethyl)-4H-benzo[e][1,2,4]thiadiazine 1,1-dioxide], the IC50 was less than 0.1 µM.
For `CC(c1nccs1)c1c(F)ccc2c1NC(NCc1cccc(F)c1)=NS2(=O)=O` (centres unmarked) [Compound 22-11, 6-fluoro-3-((3-fluorobenzyl)amino)-5-(1-(thiazol-2-yl)ethyl)-4H-benzo[e][1,2,4]thiadiazine 1,1-dioxide], the IC50 was less than 0.1 µM.
Consider `Cc1cccc(C(C)c2c(F)ccc3c2NC(NCc2cccc(F)c2)=NS3(=O)=O)c1` (centres unmarked) [Compound 22-12, 6-fluoro-3-((3-fluorobenzyl)amino)-5-(1-(m-tolyl)ethyl)-4H-benzo[e][1,2,4]thiadiazine 1,1-dioxide], for which the IC50 is less than 0.1 µM.
On to `CC(c1ccc(N(C)C)cc1)c1c(F)ccc2c1NC(NCc1cccc(F)c1)=NS2(=O)=O` (centres unmarked) [Compound 22-13, 5-(1-(4-(dimethylamino)phenyl)ethyl)-6-fluoro-3-((3-fluorobenzyl)amino)-4H-benzo[e][1,2,4]thiadiazine 1,1-dioxide], for which the IC50 was in the range of 0.1 to 0.5 µM.
For `CC(c1cccc(OC(F)(F)F)c1)c1c(F)ccc2c1NC(NCc1cccc(F)c1)=NS2(=O)=O` (centres unmarked) [Compound 22-14, 6-fluoro-3-((3-fluorobenzyl)amino)-5-(1-(3-(trifluoromethoxy)phenyl)ethyl)-4H-benzo[e][1,2,4]thiadiazine 1,1-dioxide], the IC50 fell in the range of 0.1 to 0.5 µM.
For the molecule `CC(c1ccc(Oc2ccccc2)cc1)c1c(F)ccc2c1NC(NCc1cccc(F)c1)=NS2(=O)=O` (centres unmarked) [Compound 22-15, 6-fluoro-3-((3-fluorobenzyl)amino)-5-(1-(4-phenoxyphenyl)ethyl)-4H-benzo[e][1,2,4]thiadiazine 1,1-dioxide], the IC50 lay in the range of 0.501 to 1 µM.
In the case of `CC(c1ccc(N2CCOCC2)cc1)c1c(F)ccc2c1NC(NCc1cccc(F)c1)=NS2(=O)=O` (centres unmarked) [Compound 22-16, 6-fluoro-3-((3-fluorobenzyl)amino)-5-(1-(4-morpholinophenyl)ethyl)-4H-benzo[e][1,2,4]thiadiazine 1,1-dioxide] it was 1 to 2.5 µM; in that of `CC(Cc1ccc(F)cc1)c1c(F)ccc2c1NC(NCc1cccc(F)c1)=NS2(=O)=O` (centres unmarked) [Compound 22-17, 6-fluoro-3-((3-fluorobenzyl)amino)-5-(1-(4-fluorophenyl)propan-2-yl)-4H-benzo[e][1,2,4]thiadiazine 1,1-dioxide], less than 0.1 µM.
Consider `CC(c1c(F)ccc2c1NC(NCc1cccc(F)c1)=NS2(=O)=O)c1c[nH]c2ccccc12` (centres unmarked) [Compound 22-18, 5-(1-(1H-indol-3-yl)ethyl)-6-fluoro-3-((3-fluorobenzyl)amino)-4H-benzo[e][1,2,4]thiadiazine 1,1-dioxide], for which the IC50 is 0.1 to 0.5 µM.
In the case of `Cc1nn(C)cc1C(C)c1c(F)ccc2c1NC(NCc1cccc(F)c1)=NS2(=O)=O` (centres unmarked) [Compound 22-19, 5-(1-(1,3-dimethyl-1H-pyrazol-4-yl)ethyl)-6-fluoro-3-((3-fluorobenzyl)amino)-4H-benzo[e][1,2,4]thiadiazine 1,1-dioxide], the IC50 is less than 0.1 µM.
`CC(c1ccc(S(C)(=O)=O)cc1)c1c(F)ccc2c1NC(NCc1cccc(F)c1)=NS2(=O)=O` (centres unmarked) [Compound 22-20, 6-fluoro-3-((3-fluorobenzyl)amino)-5-(1-(4-(methylsulfonyl)phenyl)ethyl)-4H-benzo[e][1,2,4]thiadiazine 1,1-dioxide]: the IC50 fell in the range of 0.1 to 0.5 µM.
For the molecule `Cc1cc(C(C)c2c(F)ccc3c2NC(NCc2cccc(F)c2)=NS3(=O)=O)ccn1` (centres unmarked) [Compound 22-21, 6-fluoro-3-((3-fluorobenzyl)amino)-5-(1-(2-methylpyridin-4-yl)ethyl)-4H-benzo[e][1,2,4]thiadiazine 1,1-dioxide], the IC50 is less than 0.1 µM.
On to `Cc1ccc(C(C)c2c(F)ccc3c2NC(NCc2cccc(F)c2)=NS3(=O)=O)cc1` (centres unmarked) [Compound 22-22, 6-fluoro-3-((3-fluorobenzyl)amino)-5-(1-(p-tolyl)ethyl)-4H-benzo[e][1,2,4]thiadiazine 1,1-dioxide], for which the IC50 was 0.1 to 0.5 µM.
For `CC(c1cccc(N(C)C)c1)c1c(F)ccc2c1NC(NCc1cccc(F)c1)=NS2(=O)=O` (centres unmarked) [Compound 22-23, 5-(1-(3-(dimethylamino)phenyl)ethyl)-6-fluoro-3-((3-fluorobenzyl)amino)-4H-benzo[e][1,2,4]thiadiazine 1,1-dioxide], the IC50 fell in the range of 0.1 to 0.5 µM.
For `Cc1ccc(C(C)c2c(F)ccc3c2NC(NCc2cccc(F)c2)=NS3(=O)=O)cn1` (centres unmarked) [Compound 22-24, 6-fluoro-3-((3-fluorobenzyl)amino)-5-(1-(6-methylpyridin-3-yl)ethyl)-4H-benzo[e][1,2,4]thiadiazine 1,1-dioxide], the IC50 was less than 0.1 µM.
On to `CC(c1ccc(F)cc1F)c1c(F)ccc2c1NC(NCc1cccc(F)c1)=NS2(=O)=O` (centres unmarked) [Compound 22-25, 5-(1-(2,4-difluorophenyl)ethyl)-6-fluoro-3-((3-fluorobenzyl)amino)-4H-benzo[e][1,2,4]thiadiazine 1,1-dioxide], for which the IC50 is less than 0.1 µM.
In the case of `COc1ccccc1C(C)c1c(F)ccc2c1NC(NCc1cccc(F)c1)=NS2(=O)=O` (centres unmarked) [Compound 22-26, 6-fluoro-3-((3-fluorobenzyl)amino)-5-(1-(2-methoxyphenyl)ethyl)-4H-benzo[e][1,2,4]thiadiazine 1,1-dioxide] it was less than 0.1 µM.
For `CC(c1ccc(F)c(C#N)c1)c1c(F)ccc2c1NC(NCc1cccc(F)c1)=NS2(=O)=O` (centres unmarked) [Compound 22-27, 2-fluoro-5-(1-(6-fluoro-3-((3-fluorobenzyl)amino)-1,1-dioxido-4H-benzo[e][1,2,4]thiadiazin-5-yl)ethyl)benzonitrile] the value was less than 0.1 µM; for `[2H]c1ccc2c(c1[C@H](C)c1ccccc1F)NC(NCc1ncccc1F)=NS2(=O)=O` [Compound 23-1, (S)-5-(1-(2-fluorophenyl)ethyl)-3-(((3-fluoropyridin-2-yl)methyl)amino)-4H-benzo[e][1,2,4]thiadiazine 1,1-dioxide-6-d], less than 0.1 µM; for `C[C@H](c1ccccc1F)c1c(F)ccc2c1NC(NCc1ccccc1F)=NS2(=O)=O` [Compound 24-1, (R)-6-fluoro-3-((2-fluorobenzyl)amino)-5-(1-(2-fluorophenyl)ethyl)-4H-benzo[e][1,2,4]thiadiazine 1,1-dioxide], less than 0.1 µM.
With `C[C@H](c1ccccc1F)c1c(F)ccc2c1NC(NCc1ccc(F)cc1F)=NS2(=O)=O` [Compound 24-2, (R)-3-((2,4-difluorobenzyl)amino)-6-fluoro-5-(1-(2-fluorophenyl)ethyl)-4H-benzo[e][1,2,4]thiadiazine 1,1-dioxide], the IC50 is less than 0.1 µM.
In the case of `C[C@H](c1ccccc1F)c1c(F)ccc2c1NC(NCc1ccc3c(cnn3C)c1)=NS2(=O)=O` [Compound 24-3, (R)-6-fluoro-5-(1-(2-fluorophenyl)ethyl)-3-(((1-methyl-1H-indazol-5-yl)methyl)amino)-4H-benzo[e][1,2,4]thiadiazine 1,1-dioxide] it was less than 0.1 µM.
